Test results published in PubChem BioAssay (NCI).
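Protocol summary: plate cells (96-well), add compound at 5 concentrations, incubate 48 h, interpolate endpoints linearly. Definition used: TGI = concentration required for complete inhibition of growth.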

How the values were obtained:
Test in all cases: NCI tumour cell line growth inhibition, 48 h
COLO 205 colon = tested on: COLO 205 colon
SF-539 CNS = tested on: SF-539 CNS
OVCAR-5 ovarian = tested on: OVCAR-5 ovarian
UACC-62 melanoma = tested on: UACC-62 melanoma
HOP-62 NSCLC = tested on: HOP-62 NSCLC
OVCAR-3 ovarian = tested on: OVCAR-3 ovarian
NCI-H226 lung = tested on: NCI-H226 lung
ACHN renal = tested on: ACHN renal
RPMI-8226 leukemia = tested on: RPMI-8226 leukemia
SK-MEL-5 melanoma = tested on: SK-MEL-5 melanoma
NCI-H522 lung = tested on: NCI-H522 lung
KM12 colon = tested on: KM12 colon
CCRF-CEM leukemia = tested on: CCRF-CEM leukemia
HL-60(TB) leukemia = tested on: HL-60(TB) leukemia
SNB-19 CNS = tested on: SNB-19 CNS
SR leukemia = tested on: SR leukemia
UACC-257 melanoma = tested on: UACC-257 melanoma
A549 NSCLC = tested on: A549 NSCLC
TK-10 renal = tested on: TK-10 renal
HOP-92 NSCLC = tested on: HOP-92 NSCLC

| Structure (SMILES) | TGI (COLO 205 colon) [µM] | TGI (SF-539 CNS) [µM] | TGI (OVCAR-5 ovarian) [µM] | TGI (UACC-62 melanoma) [µM] | TGI (HOP-62 NSCLC) [µM] | TGI (OVCAR-3 ovarian) [µM] | TGI (NCI-H226 lung) [µM] | TGI (ACHN renal) [µM] | TGI (RPMI-8226 leukemia) [µM] | TGI (SK-MEL-5 melanoma) [µM] | TGI (NCI-H522 lung) [µM] | TGI (KM12 colon) [µM] | TGI (CCRF-CEM leukemia) [µM] | TGI (HL-60(TB) leukemia) [µM] | TGI (SNB-19 CNS) [µM] | TGI (SR leukemia) [µM] | TGI (UACC-257 melanoma) [µM] | TGI (A549 NSCLC) [µM] | TGI (TK-10 renal) [µM] | TGI (HOP-92 NSCLC) [µM] |
| --- | --- | --- | --- | --- | --- | --- | --- | --- | --- | --- | --- | --- | --- | --- | --- | --- | --- | --- | --- | --- |
| Nc1ccc(Oc2ccc(C3(c4ccc(Oc5ccc(N)c(O)c5)cc4)C4CC5CC(C4)CC3C5)cc2)cc1O | 1.72 | 2.35 | 5.75 | 7.68 | 4.73 | 3.35 | 3.62 | 3.18 | 5.64 | 3.02 | 3.06 | 4.59 | 6.47 | 5.3 | 7.6 | 3.11 | 5.91 | 3.14 | 4.54 | 8.94 |
| CCOC(=O)/C(C#N)=c1/s/c(=C(\O)N/N=C/c2ccc(OC)cc2)c(=N)n1-c1ccccc1 | > 100 | > 100 | > 100 | > 100 | > 100 | > 100 | > 100 | > 100 | > 100 | > 100 | > 100 | > 100 | > 100 | > 100 | > 100 | > 100 | > 100 | > 100 | > 100 | > 100 |
| CC(C)OP(=O)(OC(C)C)C(=Nc1ccc(N=C(NNc2ccc([N+](=O)[O-])cc2)P(=O)(OC(C)C)OC(C)C)cc1)NNc1ccc([N+](=O)[O-])cc1 | > 100 | > 100 | > 100 | 6.7 | > 100 | > 100 | > 100 | > 100 | > 100 | > 100 | > 100 | > 100 | > 100 | > 100 | > 100 | > 100 | > 100 | > 100 | > 100 | > 100 |
